Assay results reported in patent publication US20030008335A1, “Biosensor for drug candidates” (priority 2001, published 2003).
Like-named read-outs stand apart in the source and are kept apart here.

Legend:
[1] = test system: bovine aortic endothelial cells (ECs); assay: EC QCM biosensor: Δf and ΔR shifts of attached endothelial cells after drug addition; type: cell-based; details: for EC50: Bos taurus, Endothelial cell
Description: The details of how these measurements were made have been presented previously. Basically, an AT cut quartz crystal of resonant frequency 8.85 MHz with gold electrode (5 mm diameter)was used in a cylindrical Teflon cell (Seiko EG&G). The crystal was sandwiched between two silicone O-rings to allow only one side of the electrode to be exposed to the media and serum containing solution (FIG. 1B). The QCM device was placed within a large petri dish, filled with distilled water, at a level well […] the water surface. This water reservoir allowed humidity to be maintained, preventing evaporation from the QCM cell. The QCM was covered with a petri dish cover plate following placement inside a 37° C. temperature regulated cell incubator. A Model QCA 917 Quartz Crystal Analyzer System (Seiko EG&G), comprised of a Main Unit and Oscillator, was used for the simultaneous measurement of the resonant frequency (f) and resonance admittance (A). Before assembly in the well holder, the gold QCM surface was treated chemically to render it hydrophilic. A drop of 1:3 H2O2 (30%): H2SO4 at 80° C. was placed upon and covered the gold surface for 5 minutes, followed by rinsing with distilled water and drying under N2. This procedure was repeated three times. After sterilization and washing with water and PBS, 52 μl of media and 10% Calf Serum (CS) was added onto the QCM electrode and the entire holder was put into a humidified CO2 incubator controlled at 10% CO2. The f and admittance (A) values were automatically monitored at 1 minute intervals using a PC and WinWedge 32, version 3.0 Software (TAL Technologies®) and the stable values at 2 hour were taken as reference values before the addition of cells. After 2 hours, 250 μl media +10% CS containing a specific number of cells was added evenly to the medium surface. Then f and A values were automatically monitored during the process of EC sedimentation to the crystal surface, and during their impact and spreading over a 20 hr period to achieve steady state attachment. In the data reduction phase, values of A, in μS were converted into motional resistance, R, in units of Ω, using the relationship R=10^6/A. Nocodazole achieved its final concentration by being added in a pre-warned 50 μl volume of media and serum, following removal of 50 μl from the top of the EC QCM biosensor well holder. Following the conclusion of each experiment, trypsinable ECs adhering to the gold QCM surface were determined as described below. Bovine aortic endothelial cells (BAEs) were obtained from Clonetics, Inc., and were maintained as stock cultures in DMEM-10% CS, as previously described. BAEs were not used beyond passage 22. For experimental treatments, ECs were trypsinized, washed with PBS, and precise counts of the number of cells were made using an electronic cell counter made by Coulter, Inc., following resuspension in full media (250 μl). At the end of a QCM experiment, cells firmly attached were determined via trypsinization assay and an electronic counter. This protocol involved the following steps. Media was collected from the QCM (M). The QCM was gently washed with 100 μl PBS (W). After 125 μl trypsin (0.05% w/v trypsin, 0.53 mM EDTA, in Hank's Buffered salt solution) was added and incubated for 6 min. at 37° C., this fraction was collected (T1). Following a second trypsinization wash, identical to the first, this fraction was collected (T2). Aliquots from all of the four steps (M, W, T1, T2) were electronically counted using Coulter counting. After trypsinization, the QCM electrode was washed successively with PBS, water, ethanol, then detached from the well holder. It was then cleaned sequentially with a number of reagents to remove all residual ECM and cell debris, as we have previously described. Cleaned in this way, the QCM was used repeatedly with good reproducibility of its initial f and R values, due to complete protein removal from the QCM surface.

[2] = test system: bovine aortic endothelial cells (ECs); assay: Fluorescence light microscopy of actin-stained ECs in multichamber LabTek slides (QCM simulation); type: cell-based; details: for EC shape and morphology (actin stain): 4 hr treatment
Method: To acquire detailed information about the change in cell shape and attachment while ECs were exposed to varying nocodazole concentrations, we performed a simulation experiment. 76,400 ECs were plated into multichamber LabTek slides and were allowed to attach for 24 hrs in normal growth media. This number of cells simulates the cell surface density in the QCM device. 50 μL of media was then removed and replaced with 50 μL of media with or without concentrated nocodazole. In duplicate, cells either received no nocodazole (control) or final concentrations of 0.33, 1, 2, 6 or 15 μM nocodazole. After four hours, the cells were fixed and stained to reveal the actin microfilament arrangement within the cells, as described below. These studies were performed to detect the shape and attachment changes in ECs that would roughly correspond to a time when the QCM detected maximal shifts in f and R values. […] For actin localization in the multichamber wells or in the QCM device, media was aspirated and replaced with 3.5% formaldehyde. The cells were fixed for 15 mins at room temperature, washed with PBS and then incubated with rhodamine-labeled phalloidin (0.165 μM in PBS) for 30 mins at room temperature. The cells were then washed with PBS and coverslipped with Cytoseal mounting medium (VWR Scientific). The cells were examined using an Olympus BH2 CTD microscope, and the images were digitized using a CCD camera and imported into Photoshop 5.0 of Adobe® and using a Gateways® P11-390 computer.

[3] = test system: bovine aortic endothelial cells (ECs); assay: Fluorescence light microscopy of actin-stained ECs on the gold QCM crystal surface; type: cell-based; details: 15 μM (FIG. 8B), four hours treatment
Method: For actin localization in the multichamber wells or in the QCM device, media was aspirated and replaced with 3.5% formaldehyde. The cells were fixed for 15 mins at room temperature, washed with PBS and then incubated with rhodamine-labeled phalloidin (0.165 μM in PBS) for 30 mins at room temperature. The cells were then washed with PBS and coverslipped with Cytoseal mounting medium (VWR Scientific). The cells were examined using an Olympus BH2 CTD microscope, and the images were digitized using a CCD camera and imported into Photoshop 5.0 of Adobe® and using a Gateways® P11-390 computer. Actin localization within cells grown and or treated with nocodazole in the QCM. We wished to examine the ECs directly attached to the QCM surface with and without nocodazole treatment. Since the […] needed to be chemically fixed on the surface, we needed to sacrifice crystals for this purpose. Two different crystals were used. The first crystal was used to visualize ECs growing on the gold QCM surface at the steady state condition. At the conclusion of the QCM measurement, cells on the crystals were stained to localize actin microfilaments. In the first experiment, ECs were added to the crystal and were allowed to attach for 24 hrs to achieve their normal characteristic Δf and ΔR shifts. […]

[4] = test system: bovine aortic endothelial cells (ECs); details: 3 ng/ml, over 3 days following administration; cited from earlier work
[5] = 15 μM, ECs beginning to detach from crystal surface
[6] = fluorescence light microscope observations

| Molecule | initial maximum increase in ΔR after drug addition ([1]; 2.0 μM final concentration, 20,000 ECs added, steady state biosensor) | Δf drop after drug addition ([1]; 2.0 μM final concentration, over the next 4 hours, 20,000 ECs added, steady state biosensor) [Hz] | Δ(ΔR) value at 15 μM relative to that measured at 6 μM [1, 5] [%] | Δ(Δf) value at 15 μM relative to that measured at 6 μM [1, 5] [%] | EC50 ([1]; as printed in the conclusion, read-out: PC50 (midpoint value of dose effect curve)) [nM] | EC50 ([1]; dose curves of Δ(Δf) and Δ(ΔR) vs log concentration, 0.11-6 μM, read-out: PC50 (effective change in cellular attachment in 50% of the ECs, transition midpoint of dose curve)) [nM] | EC shape and morphology (actin stain) ([2]; 0.33 μM) | EC shape and morphology (actin stain) ([2]; 1 and 2 μM) | EC shape and morphology (actin stain) ([2]; 6 and 15 μM) | concentration at which changes in EC intercellular contacts and progressive cell rounding begin [2, 6] | concentration by which changes in EC intercellular contacts and cell rounding saturate [2, 6] [µM] | EC shape and morphology on QCM crystal (actin stain) [3] | growth stimulation of ECs on the QCM biosensor [4] |
| --- | --- | --- | --- | --- | --- | --- | --- | --- | --- | --- | --- | --- | --- |
| COC(=O)Nc1nc2ccc(C(=O)c3cccs3)cc2[nH]1 [nocodazole] | 14 Ω | 360 | 50 | 50 | 900 | ~900 | smaller than control cells | the monolayer became disrupted | significantly reduced cellular area | around 330 nM | ≤ 6 | lost cell-cell contact | – |
| Fibroblast Growth Factor | – | – | – | – | – | – | – | – | – | – | – | – | stimulated the ECs to divide |
